ChEMBL document CHEMBL4507291 (2021)

Experiments:
[1] = target: Mu-type opioid receptor (Homo sapiens) (UniProt P35372); conditions: Compound concentration 10.0 uM
[2] = target: Myosin light chain kinase 2, skeletal/cardiac muscle (Homo sapiens) (UniProt Q9H1R3); assay: MLCK (MLCK2) Kinase screen; conditions: Compound concentration 1.0 uM
[3] = target: Serine/threonine-protein kinase Chk2 (Homo sapiens) (UniProt O96017); assay: CHEK2 (CHK2) Kinase screen; conditions: Compound concentration 1.0 uM
[4] = target: Epithelial discoidin domain-containing receptor 1 (Homo sapiens) (UniProt Q08345); assay: DDR1 Kinase screen; conditions: Compound concentration 1.0 uM
[5] = target: Beta-1 adrenergic receptor (Homo sapiens) (UniProt P08588); conditions: Compound concentration 10.0 uM
[6] = test system: Tyrosine-protein kinase ABL1 (Homo sapiens), P00519 [Y253F]; assay: ABL1 Y253F Kinase screen; conditions: Compound concentration 1.0 uM
[7] = target: T1, Mitogen-activated protein kinase 12 (Homo sapiens) (UniProt P53778); assay: MAPK12 (p38 gamma) Kinase screen; conditions: Compound concentration 1.0 uM
T1 sequence (whole entry): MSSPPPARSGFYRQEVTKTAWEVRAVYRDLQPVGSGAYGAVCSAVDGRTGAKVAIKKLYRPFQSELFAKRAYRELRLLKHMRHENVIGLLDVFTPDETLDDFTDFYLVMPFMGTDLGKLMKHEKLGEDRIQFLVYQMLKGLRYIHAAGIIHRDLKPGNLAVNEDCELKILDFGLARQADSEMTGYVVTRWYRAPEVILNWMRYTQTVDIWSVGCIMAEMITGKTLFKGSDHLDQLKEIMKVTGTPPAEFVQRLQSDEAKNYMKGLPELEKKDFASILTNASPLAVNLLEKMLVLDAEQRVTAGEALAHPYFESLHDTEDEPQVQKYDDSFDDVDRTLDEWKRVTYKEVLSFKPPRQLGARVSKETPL

[8] = target: RAC-alpha serine/threonine-protein kinase (Homo sapiens) (UniProt P31749); assay: AKT1 (PKB alpha) Kinase screen; conditions: Compound concentration 1.0 uM
[9] = target: T2, Mitogen-activated protein kinase kinase kinase 5 (Homo sapiens) (UniProt Q99683); assay: MAP3K5 (ASK1) Kinase screen; conditions: Compound concentration 1.0 uM
T2 sequence (whole entry): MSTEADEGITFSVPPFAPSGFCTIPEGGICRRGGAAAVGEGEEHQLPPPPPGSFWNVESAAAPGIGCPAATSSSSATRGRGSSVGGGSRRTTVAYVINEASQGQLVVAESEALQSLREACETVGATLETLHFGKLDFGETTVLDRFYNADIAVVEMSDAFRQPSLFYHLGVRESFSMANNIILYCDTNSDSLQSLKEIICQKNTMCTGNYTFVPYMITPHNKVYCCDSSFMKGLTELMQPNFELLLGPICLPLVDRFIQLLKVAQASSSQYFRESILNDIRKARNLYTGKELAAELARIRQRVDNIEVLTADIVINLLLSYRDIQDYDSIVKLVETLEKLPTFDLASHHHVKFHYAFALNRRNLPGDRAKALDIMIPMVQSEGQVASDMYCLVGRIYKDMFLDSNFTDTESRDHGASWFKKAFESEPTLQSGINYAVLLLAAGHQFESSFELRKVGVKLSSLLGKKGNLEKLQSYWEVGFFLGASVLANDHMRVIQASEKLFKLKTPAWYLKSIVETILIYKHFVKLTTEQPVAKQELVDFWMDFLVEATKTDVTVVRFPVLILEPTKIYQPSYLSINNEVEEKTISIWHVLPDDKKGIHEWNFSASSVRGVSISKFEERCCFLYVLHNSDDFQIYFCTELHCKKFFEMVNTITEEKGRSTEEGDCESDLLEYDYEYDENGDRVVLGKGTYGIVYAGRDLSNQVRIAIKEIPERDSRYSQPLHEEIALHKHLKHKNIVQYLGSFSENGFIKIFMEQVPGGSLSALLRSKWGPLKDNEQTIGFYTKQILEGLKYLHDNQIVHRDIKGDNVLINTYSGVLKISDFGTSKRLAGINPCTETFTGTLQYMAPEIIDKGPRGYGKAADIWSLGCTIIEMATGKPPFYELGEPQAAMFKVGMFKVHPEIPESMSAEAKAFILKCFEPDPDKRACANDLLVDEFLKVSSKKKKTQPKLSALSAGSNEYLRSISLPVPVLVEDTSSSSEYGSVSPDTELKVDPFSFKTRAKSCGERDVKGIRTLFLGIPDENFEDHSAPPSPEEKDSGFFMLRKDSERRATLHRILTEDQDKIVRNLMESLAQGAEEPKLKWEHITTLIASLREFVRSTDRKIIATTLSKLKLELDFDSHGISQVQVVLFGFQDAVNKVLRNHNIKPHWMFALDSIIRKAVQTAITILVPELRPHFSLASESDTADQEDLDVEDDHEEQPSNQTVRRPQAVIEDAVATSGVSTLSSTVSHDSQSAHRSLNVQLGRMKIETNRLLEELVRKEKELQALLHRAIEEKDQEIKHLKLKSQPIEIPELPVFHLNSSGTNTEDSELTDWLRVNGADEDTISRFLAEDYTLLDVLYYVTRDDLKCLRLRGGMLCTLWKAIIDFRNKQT

[10] = target: 5-hydroxytryptamine receptor 6 (Homo sapiens) (UniProt P50406); assay: Inhibition of Serotonin (5-Hydroxytryptamine) 5-HT6 at 10 µM in the Eurofins-Panlabs radioligand binding assay (Eurofins_assay_272200); conditions: Compound concentration 10.0 uM
[11] = target: STE20-like serine/threonine-protein kinase (Homo sapiens) (UniProt Q9H2G2); assay: SLK Kinase screen; conditions: Compound concentration 1.0 uM
[12] = target: T3, Alpha-2B adrenergic receptor (Homo sapiens) (UniProt P18089); conditions: Compound concentration 10.0 uM
T3 sequence (whole entry): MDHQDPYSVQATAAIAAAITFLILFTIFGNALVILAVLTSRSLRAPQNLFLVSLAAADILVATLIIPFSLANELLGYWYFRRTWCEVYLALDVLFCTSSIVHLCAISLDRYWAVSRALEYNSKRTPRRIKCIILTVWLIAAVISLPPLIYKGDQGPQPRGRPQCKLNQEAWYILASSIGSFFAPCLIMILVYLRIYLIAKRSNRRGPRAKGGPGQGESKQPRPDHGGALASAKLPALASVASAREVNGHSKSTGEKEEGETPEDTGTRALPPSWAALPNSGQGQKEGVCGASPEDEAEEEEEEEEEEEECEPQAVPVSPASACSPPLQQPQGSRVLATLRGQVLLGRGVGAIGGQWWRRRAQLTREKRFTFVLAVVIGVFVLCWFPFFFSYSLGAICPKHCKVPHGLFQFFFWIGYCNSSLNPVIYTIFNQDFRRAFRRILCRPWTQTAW

[13] = target: Muscarinic acetylcholine receptor M3 (Homo sapiens) (UniProt P20309); conditions: Compound concentration 10.0 uM
[14] = target: Aurora kinase B (Homo sapiens) (UniProt Q96GD4); assay: AURKB (Aurora B) Kinase screen; conditions: Compound concentration 1.0 uM

Measured: inhibition

Sequence of Beta-1 adrenergic receptor (Homo sapiens) (P08588 whole entry, looked up): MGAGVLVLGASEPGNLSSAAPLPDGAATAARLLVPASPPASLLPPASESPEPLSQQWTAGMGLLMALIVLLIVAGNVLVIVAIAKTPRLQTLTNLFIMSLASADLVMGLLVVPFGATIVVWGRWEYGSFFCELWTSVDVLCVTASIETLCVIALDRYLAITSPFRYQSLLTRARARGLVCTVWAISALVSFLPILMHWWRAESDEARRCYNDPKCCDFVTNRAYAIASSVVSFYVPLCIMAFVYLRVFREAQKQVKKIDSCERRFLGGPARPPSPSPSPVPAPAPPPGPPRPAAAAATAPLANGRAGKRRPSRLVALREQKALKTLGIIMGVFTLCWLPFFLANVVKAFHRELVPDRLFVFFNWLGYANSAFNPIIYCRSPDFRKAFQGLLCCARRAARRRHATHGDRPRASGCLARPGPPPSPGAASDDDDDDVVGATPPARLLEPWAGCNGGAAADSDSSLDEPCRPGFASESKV
Sequence of RAC-alpha serine/threonine-protein kinase (Homo sapiens) (P31749 whole entry): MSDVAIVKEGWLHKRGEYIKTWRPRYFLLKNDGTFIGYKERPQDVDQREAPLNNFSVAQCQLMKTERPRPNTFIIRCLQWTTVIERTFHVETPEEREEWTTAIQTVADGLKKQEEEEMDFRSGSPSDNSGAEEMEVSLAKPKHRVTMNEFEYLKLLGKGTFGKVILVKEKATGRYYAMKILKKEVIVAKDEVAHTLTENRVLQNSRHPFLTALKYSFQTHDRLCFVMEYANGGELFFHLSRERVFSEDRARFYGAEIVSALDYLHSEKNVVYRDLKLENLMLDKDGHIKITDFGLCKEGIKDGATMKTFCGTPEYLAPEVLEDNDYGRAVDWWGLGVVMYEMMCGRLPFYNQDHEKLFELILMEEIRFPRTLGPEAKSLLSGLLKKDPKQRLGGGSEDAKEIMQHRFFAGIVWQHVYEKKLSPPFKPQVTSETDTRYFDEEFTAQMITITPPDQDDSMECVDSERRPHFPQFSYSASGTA
Sequence of 5-hydroxytryptamine receptor 6 (Homo sapiens) (P50406 whole entry): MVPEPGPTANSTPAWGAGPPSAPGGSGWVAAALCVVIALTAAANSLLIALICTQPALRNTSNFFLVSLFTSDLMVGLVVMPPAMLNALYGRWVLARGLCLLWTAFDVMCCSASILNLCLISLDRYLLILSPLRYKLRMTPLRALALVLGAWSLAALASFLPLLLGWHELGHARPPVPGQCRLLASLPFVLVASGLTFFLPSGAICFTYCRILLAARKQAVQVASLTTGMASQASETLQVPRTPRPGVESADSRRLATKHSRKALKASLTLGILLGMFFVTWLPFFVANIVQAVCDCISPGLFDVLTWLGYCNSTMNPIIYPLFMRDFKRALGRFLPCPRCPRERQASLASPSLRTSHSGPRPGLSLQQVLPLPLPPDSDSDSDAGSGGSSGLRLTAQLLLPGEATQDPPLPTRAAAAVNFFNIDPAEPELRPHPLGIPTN
Sequence of Serine/threonine-protein kinase Chk2 (Homo sapiens) (O96017 whole entry, the tested form may be a part): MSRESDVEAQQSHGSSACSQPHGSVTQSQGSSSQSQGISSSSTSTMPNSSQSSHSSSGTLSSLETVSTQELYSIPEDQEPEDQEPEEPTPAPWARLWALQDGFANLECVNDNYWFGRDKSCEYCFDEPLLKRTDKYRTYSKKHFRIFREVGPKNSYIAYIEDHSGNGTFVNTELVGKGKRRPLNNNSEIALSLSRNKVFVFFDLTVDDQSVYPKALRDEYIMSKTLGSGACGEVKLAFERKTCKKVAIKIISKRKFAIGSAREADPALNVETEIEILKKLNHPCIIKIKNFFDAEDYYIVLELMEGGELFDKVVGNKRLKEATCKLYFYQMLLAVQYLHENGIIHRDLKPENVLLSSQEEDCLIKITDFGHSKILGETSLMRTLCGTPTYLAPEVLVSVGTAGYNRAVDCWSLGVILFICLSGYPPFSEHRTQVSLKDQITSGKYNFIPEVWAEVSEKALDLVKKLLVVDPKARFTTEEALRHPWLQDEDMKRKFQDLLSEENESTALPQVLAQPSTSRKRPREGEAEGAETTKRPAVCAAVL
Sequence of Myosin light chain kinase 2, skeletal/cardiac muscle (Homo sapiens) (Q9H1R3 whole entry): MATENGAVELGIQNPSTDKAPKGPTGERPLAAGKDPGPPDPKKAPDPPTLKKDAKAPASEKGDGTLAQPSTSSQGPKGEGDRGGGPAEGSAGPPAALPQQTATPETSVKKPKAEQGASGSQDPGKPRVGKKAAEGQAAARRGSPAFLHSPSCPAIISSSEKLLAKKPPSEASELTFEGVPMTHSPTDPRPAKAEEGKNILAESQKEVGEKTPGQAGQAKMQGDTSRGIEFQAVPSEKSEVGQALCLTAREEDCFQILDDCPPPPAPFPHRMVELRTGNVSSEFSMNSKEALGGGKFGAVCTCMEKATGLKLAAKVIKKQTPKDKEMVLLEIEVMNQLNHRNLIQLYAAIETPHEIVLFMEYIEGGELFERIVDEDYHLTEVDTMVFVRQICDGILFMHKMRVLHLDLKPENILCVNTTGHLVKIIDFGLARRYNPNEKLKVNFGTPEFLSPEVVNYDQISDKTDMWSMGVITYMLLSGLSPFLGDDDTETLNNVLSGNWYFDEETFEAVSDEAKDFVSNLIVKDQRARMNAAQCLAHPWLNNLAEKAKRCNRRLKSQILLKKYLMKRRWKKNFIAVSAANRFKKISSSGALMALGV
Sequence of Muscarinic acetylcholine receptor M3 (Homo sapiens) (P20309 whole entry, looked up): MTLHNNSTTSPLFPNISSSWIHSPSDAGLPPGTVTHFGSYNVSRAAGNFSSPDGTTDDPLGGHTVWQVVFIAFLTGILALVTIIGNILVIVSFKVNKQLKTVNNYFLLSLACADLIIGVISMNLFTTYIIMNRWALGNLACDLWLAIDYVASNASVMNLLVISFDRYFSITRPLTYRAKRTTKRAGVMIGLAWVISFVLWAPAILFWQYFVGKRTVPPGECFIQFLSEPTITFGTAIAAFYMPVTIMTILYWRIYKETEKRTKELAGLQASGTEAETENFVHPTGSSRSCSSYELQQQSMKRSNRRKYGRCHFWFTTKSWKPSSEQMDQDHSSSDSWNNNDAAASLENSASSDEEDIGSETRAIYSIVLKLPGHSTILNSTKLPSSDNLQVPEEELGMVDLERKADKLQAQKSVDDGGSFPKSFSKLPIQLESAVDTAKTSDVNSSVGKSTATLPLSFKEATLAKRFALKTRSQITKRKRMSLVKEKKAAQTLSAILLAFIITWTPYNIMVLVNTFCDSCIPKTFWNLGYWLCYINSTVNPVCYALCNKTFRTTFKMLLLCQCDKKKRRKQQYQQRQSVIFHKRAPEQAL
Sequence of Aurora kinase B (Homo sapiens) (Q96GD4 whole entry): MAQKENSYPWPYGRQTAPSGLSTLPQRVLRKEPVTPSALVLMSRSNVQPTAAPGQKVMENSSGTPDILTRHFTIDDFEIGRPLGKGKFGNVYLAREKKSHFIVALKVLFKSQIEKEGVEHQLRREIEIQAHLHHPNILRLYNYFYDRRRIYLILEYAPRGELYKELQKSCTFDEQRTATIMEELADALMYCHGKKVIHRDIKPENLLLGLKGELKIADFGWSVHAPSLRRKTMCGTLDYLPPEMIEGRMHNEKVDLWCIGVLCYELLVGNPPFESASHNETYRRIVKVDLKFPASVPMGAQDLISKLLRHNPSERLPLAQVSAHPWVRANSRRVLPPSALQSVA
Sequence of Epithelial discoidin domain-containing receptor 1 (Homo sapiens) (Q08345 whole entry, the tested form may be a part): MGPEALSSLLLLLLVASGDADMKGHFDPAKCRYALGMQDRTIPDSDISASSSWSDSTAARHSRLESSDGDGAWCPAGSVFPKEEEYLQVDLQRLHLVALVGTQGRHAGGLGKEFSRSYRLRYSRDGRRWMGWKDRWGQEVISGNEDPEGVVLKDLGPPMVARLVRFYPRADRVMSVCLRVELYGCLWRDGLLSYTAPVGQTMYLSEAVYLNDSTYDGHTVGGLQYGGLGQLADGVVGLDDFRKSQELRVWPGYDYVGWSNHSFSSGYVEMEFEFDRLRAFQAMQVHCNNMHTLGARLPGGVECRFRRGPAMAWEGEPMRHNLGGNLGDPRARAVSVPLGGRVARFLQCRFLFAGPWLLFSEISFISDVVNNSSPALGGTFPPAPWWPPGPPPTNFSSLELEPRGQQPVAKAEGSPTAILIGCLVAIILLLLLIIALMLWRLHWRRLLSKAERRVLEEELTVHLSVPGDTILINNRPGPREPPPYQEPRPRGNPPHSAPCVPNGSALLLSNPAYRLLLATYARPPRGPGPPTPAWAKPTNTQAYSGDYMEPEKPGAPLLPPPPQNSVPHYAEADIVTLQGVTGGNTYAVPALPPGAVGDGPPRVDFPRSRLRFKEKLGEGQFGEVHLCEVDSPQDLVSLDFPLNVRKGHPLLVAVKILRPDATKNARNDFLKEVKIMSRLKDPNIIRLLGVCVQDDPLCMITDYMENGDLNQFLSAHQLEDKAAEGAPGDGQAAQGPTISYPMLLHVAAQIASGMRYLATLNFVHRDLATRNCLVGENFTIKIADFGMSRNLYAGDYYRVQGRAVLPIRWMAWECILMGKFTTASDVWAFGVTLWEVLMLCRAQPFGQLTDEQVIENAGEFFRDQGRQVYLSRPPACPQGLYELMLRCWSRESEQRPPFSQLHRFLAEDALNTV
Sequence of Mu-type opioid receptor (Homo sapiens) (P35372 whole entry): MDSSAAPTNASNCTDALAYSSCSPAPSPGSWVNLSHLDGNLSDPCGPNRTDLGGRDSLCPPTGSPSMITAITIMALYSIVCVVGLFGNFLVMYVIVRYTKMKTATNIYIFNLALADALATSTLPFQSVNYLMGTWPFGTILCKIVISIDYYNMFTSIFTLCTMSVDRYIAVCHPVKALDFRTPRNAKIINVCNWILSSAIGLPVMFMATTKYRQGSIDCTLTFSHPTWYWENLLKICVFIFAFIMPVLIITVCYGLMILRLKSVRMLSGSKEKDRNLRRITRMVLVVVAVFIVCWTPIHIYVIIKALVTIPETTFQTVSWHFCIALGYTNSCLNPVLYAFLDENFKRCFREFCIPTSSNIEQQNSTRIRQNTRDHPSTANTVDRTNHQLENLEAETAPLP

C[C@@H]1CN(c2cc(-c3n[nH]c4ccc(OC5(C)CC5)cc34)ncn2)C[C@H](C)O1 [MLi-2]
inactive: [1] 17% | [2] 1.73% | [3] 14.9% | [4] 0.893% | [5] -7% | [6] 7.26% | [7] 1% | [8] 6.75% | [9] 71.9% | [10] 3% | [11] 1.5% | [12] 2% | [13] 26% | [14] 16.2%
